# Assay results from publication PMC9672091, “Ameliorative effect of vanillin on scopolamine-induced dementia-like cognitive impairment in a mouse model” (Frontiers in Neuroscience, 2022).
# Target: T1, acetylcholinesterase enzyme (from electric eel) (Electrophorus electricus, UniProt O42275)
# T1 construct: gene ache; commercial enzyme from electric eel (Sigma-Aldrich), native source; no construct or oligomer details printed
# Experiment: modified Ellman assay, absorbance at […] nm
# Type: biochemical
# T1 sequence (O42275 24-633): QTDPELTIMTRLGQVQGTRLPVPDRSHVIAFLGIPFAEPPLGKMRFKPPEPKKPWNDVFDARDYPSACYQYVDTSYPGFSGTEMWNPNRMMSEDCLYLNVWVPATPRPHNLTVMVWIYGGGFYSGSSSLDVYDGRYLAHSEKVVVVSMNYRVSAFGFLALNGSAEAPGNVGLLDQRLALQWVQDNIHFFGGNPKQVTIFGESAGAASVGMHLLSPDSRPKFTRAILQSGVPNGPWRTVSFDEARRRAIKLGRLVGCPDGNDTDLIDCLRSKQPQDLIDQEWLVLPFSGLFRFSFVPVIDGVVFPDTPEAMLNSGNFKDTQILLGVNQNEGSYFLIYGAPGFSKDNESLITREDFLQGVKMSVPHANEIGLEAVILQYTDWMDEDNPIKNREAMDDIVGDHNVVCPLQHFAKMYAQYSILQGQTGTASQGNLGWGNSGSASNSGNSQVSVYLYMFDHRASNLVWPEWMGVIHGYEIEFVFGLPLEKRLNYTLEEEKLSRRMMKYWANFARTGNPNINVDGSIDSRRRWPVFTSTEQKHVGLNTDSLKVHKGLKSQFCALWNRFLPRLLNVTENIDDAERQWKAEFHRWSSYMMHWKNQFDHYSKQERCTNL
smiles,measurement,value
COc1cc(C=O)ccc1O [Vanillin],IC50,33 µM
